The values that follow come from paper PMC11589483, “Preparation and anti-colon cancer effect of a novel curcumin analogue (CA8): in vivo and in vitro evaluation” (Frontiers in Pharmacology, 2024).

One may read the IC50 as the concentration needed to halve the response being measured. The term Tmax denotes the time from dosing to the highest level. What is called Cmax is the peak of the concentration-time curve.

Like-named read-outs stand apart in the source and are kept apart here.

Details of data set [1]: method as in Al-Hujaily et al., 2011. Conditions: ref Al-Hujaily et al., 2011; cited from earlier work.
A short description of data set [2]: Solubility in water by HPLC. The class given is physicochemical. To be noted: 25°C, mass of solute dissolved at saturation in 100 g of solvent. On the procedure:
The solubility of the synthesized compounds in water was determined using high performance liquid chromatography (HPLC). First, 1.000 g of each compound was accurately weighed, placed in 100 g of water, and stirred at 25°C for a period of time. Then, the reaction system was allowed to stand for 1 h. The supernatant was quantitatively taken, diluted with methanol to volume, and centrifuged, and the solubility was determined using HPLC.

For the next data set, the system named is lung cancer cells A549. Put plainly: MTT antiproliferative assay, A549. In kind it is cell-based. To be noted: Homo sapiens. On the procedure:
(§1) The human cancer cell lines A549, HepG2, MCF-7, Caco-2, and HeLa and the normal human liver cell line LO2 were all obtained from Shanghai Cell Bank of China. All cells were cultured in RPMI 1640 or DMEM supplemented with 10% fetal bovine serum, 100 U/mL penicillin, and 100 μg/mL streptomycin and incubated at 37°C under 5% CO2 (HEPA incubator class100 Thermo company). The medium was replaced three times a week. Cells used in all were in the exponential growth phase.
(§2) The cell inhibition rate was evaluated using the MTT assay. Briefly, cells were seeded in a 96-well plate at a density of 3–4 × 10^3 cells per well and incubated at 37°C for 24 h. The MCACs to be tested were dissolved in dimethyl sulfoxide (DMSO, Merck, Germany) and diluted to five concentrations (3.75, 7.5, 15, 30, 60 μM/L) with RPMI 1640 medium, with each dose analyzed in quadruplicate. The concentration of DMSO was always maintained below 1‰, a concentration that is nontoxic to cells. After incubation for 24 or 48 h, MTT reagent (5 mg/mL) was added to each well and the samples were incubated for 3 h at 37°C in the dark. The absorbance of formazan crystals dissolved in 150 µL of DMSO was measured at 570 nm using a microplate reader to identify the cytotoxic effect of the analogues.
(In general: Tetrazolium assays rely on reduction of a dye to a coloured formazan, in cell work by metabolically active cells.)

Another data set concerns liver cancer cells HepG2. Put plainly: MTT antiproliferative assay, HepG2. The class given is cell-based. Conditions: Homo sapiens. As to the method: as §1, §2
The test system of data set [3] is breast cancer cells MCF-7. Put plainly: MTT antiproliferative assay, MCF-7. To be noted: Homo sapiens. In kind it is cell-based. As to the method:
as §1, §2

For data set [4], the system named is cervical cancer cells HeLa. Put plainly: MTT antiproliferative assay, HeLa. Conditions: Homo sapiens. The class given is cell-based. As to the method:
as §1, §2

Data set [5] deals with colon cancer cells Caco-2. Nature of the data set: MTT antiproliferative assay, Caco-2. In kind it is cell-based, human. To be noted: for IC50: Homo sapiens, read-out: IC50 Caco2. As to the method:
as §1, §2

The test system of data set [6] is normal human liver cell line LO2. Nature of the data set: MTT assay, normal liver cells LO2. The class given is cell-based. As to the method:
as §1, §2

Data set [7] deals with Caco-2 cells. Nature of the data set: Clonogenic assay. The class given is cell-based, human. To be noted: 4, 8, or 16 μM/L, 6 h exposure. On the procedure: Caco-2 cells were seeded into a 6-well plate at a density of 1 × 10^3 cells per well and incubated overnight. Then, the medium was replaced, and CA8 was added at the prescribed concentrations (4, 8, or 16 μM/L). After 6 h, the drug-containing medium was replaced with RPMI 1640 medium.
Caco-2 cells in 6-well plates were incubated for 1–2 weeks until the appearance of the colonies, followed by staining with crystal violet and incubation for 1 h at room temperature. After staining, images were captured accordingly.

Data set [8] deals with Caco-2 cells. Put plainly: Apoptosis assay (Annexin V-FITC/propidium iodide flow cytometry). In kind it is cell-based, human. To be noted: 4, 8, 16 μM, 24 h. On the procedure: The apoptotic effect of CA8 was assessed in Caco-2 cells according to the kit instructions. First, Caco-2 cells were treated with CA8 at dose of 4, 8, or 16 μM/L for 24 h. The cells were harvested and suspended in 500 μL annexin-binding buffer. Subsequently, the cells were stained with Annexin V-FITC for 15 min and then incubated with propidium iodide for 5 min at room temperature in the dark. Finally, all samples were evaluated via flow cytometry (FACS Calibur, BD, San Jose, CA, United States). The results obtained were analyzed using the FlowJo software, and the apoptotic rate was calculated.
(In flow cytometry, cells or beads pass a laser one at a time.)

The subject of data set [9] is Caco-2 cells. Put plainly: Cell cycle analysis (flow cytometry). In kind it is cell-based, human. To be noted: 4, 8, 16 μM, 24 h. On the procedure:
Caco-2 cells treated with CA8 at dose of 4, 8, or 16 μM/L for 24 h, they were collected, washed with PBS, and fixed in 70% ethanol overnight. The fixed cells were washed twice with PBS, treated with RNase A (10 mg/mL) and resuspended in 50 μg/mL propidium iodide for staining. Finally, the cell cycle distribution was assessed via flow cytometry (BD Biosciences, CA).

Data set [10] has as its system AKT, JNK, and NF-κB signaling pathways and apoptosis-related proteins. Nature of the data set: Western blot of signaling and apoptosis proteins in Caco-2 cells. The class given is cell-based, human. To be noted: Caco-2, 4, 8, 16 μM, 24 h, vs control. On the procedure: The expression of apoptotic proteins and pathways was detected using western blot. Caco-2 cells treated with CA8 at a dose of 4, 8, or 16 μM/L for 24 h were collected and lysed with RIPA lysis buffer for 10 min. The concentration of total proteins was determined using a BCA protein quantitative kit. Total proteins were separated on an SDS-PAGE gel, transferred to PVDF membranes and incubated with 5% skim milk for 2 h. Subsequently, the PVDF membranes were incubated with primary antibodies (AKT 1:2000; Bcl-2 1:2000; Bax 1:5000; caspase-3 1:2,000; caspase-9 1:1000; P-AKT 1:1000; JNK 1:1000; P-JNK 1:1000; IKBα 1:2000; and β-actin 1:100000) at 4°C overnight. The membranes were rinsed three times with TBST and incubated with secondary antibodies (1:5000 dilution) for 2–3 h at room temperature. Finally, proteins were visualized using an ECL chemiluminescent kit (KF001, affinity). In the final step, the ImageJ software was used to analyze the results.
A general note: Immunoblotting shows a protein as a band on a membrane.

Data set [11] can be described thus: Pharmacokinetics evaluation after gavage. In kind it is in vivo, Sprague Dawley (SD) rats. To be noted: SD rats. On the procedure: After the evaluation of the safety of CA8, 10 male Sprague Dawley (SD) rats were randomly divided into the CA8 and CU groups for the pharmacokinetic test ([Ye et al., 2020]). The rats were subjected to 1 week of adaptation and were fasted for 6 h before the experiment. CA8 (50 mg kg^−1) and CU (50 mg kg^−1) were administered via gavage. Blood samples were collected at 0.03, 0.08, 0.16, 0.25, 0.5, 1, 2, 4, 8 and 12 h and centrifuged at 5,000 rpm for 3 min to obtain the plasma. A mixture of ethyl acetate and methanol was then added to precipitate the proteins and separate the CA8 and CU from the plasma. The samples were then analyzed using HPLC.

A further data set concerns Caco-2 xenograft tumors. Put plainly: In vivo anticancer activity, Caco-2 xenograft. To be noted: Caco-2 xenograft; CA8 100 mg/kg, CU 100 mg/kg, tegafur 50 mg/kg, gavage every other day. As to the method:
Twenty 5-week-old male BALB nude mice purchased from SPF (Beijing) Biotechnology Co., Ltd. were used for the in vivo pharmacodynamic experiment of CA8. Caco-2 cells (6 × 10^6 cells in 100 μL PBS) were harvested and subcutaneously injected into the right hip of the mice. Then, they were divided into four groups when the tumor volume reached 100 mm^3 and treated with saline, CU (100 mg/kg), tegafur (50 mg/kg), or CA8 (100 mg/kg) via gavage every other day. Tumor size and body weight were measured and recorded every other day. At the end of the experiment, the mice were sacrificed and tumors were harvested and weighed. Tumor volumes were calculated by measuring length (L) and width (W) according to the following formula: V = 0.5 × L × W^2. The tumor tissue was embedded in paraffin, cut into slices, stained with HE, and observed under a light microscope.

Regarding `COc1cc(C=C2CN(C)CC(=Cc3ccc(O)c(OC)c3)C2=O)ccc1O` [PAC], the “solubility in water, times that of CU” value in [1] is given as 27 times.

The compound `COc1cc(/C=C/C(=O)CC(=O)/C=C/c2ccc(O)c(OC)c2)ccc1O` [CU, Curcumin] registered a Solubility in [2] of 0.00017 mg/100g. The IC50 with lung cancer cells A549 (A549, 24 h) came to 37.2 ± 2.9 µM; in the data set with lung cancer cells A549 (A549, 48 h), 34.4 ± 1.5 µM; in the data set on liver cancer cells HepG2 (HepG2, 24 h), 43.4 ± 2.9 µM; in the data set with liver cancer cells HepG2 (HepG2, 48 h), 27.4 ± 0.3 µM; in data set [3] (MCF7, 24 h) it was 40 ± 2.7 µM; in data set [3] (MCF7, 48 h), 22.3 ± 1.6 µM. The IC50 was 58.3 ± 2.2 µM in data set [4] (24 h); 17.3 ± 0.8 µM in data set [4] (48 h); over 60 µM in data set [5] (Caco-2, 24 h); 33 ± 2.1 µM in data set [5] (Caco-2, 48 h); over 60 µM in data set [6] (24 h); 27.6 ± 1.36 µM in [6] (48 h). The “SI Caco2” value in [5] (48 h, logarithm of ratio IC50 LO2 / IC50 cancer cells) is reported as −0.08. Further, the “Caco-2 colony formation” value in the data set with Caco-2 cells [7] is “did not have a significant inhibitory effect”. In the data set with Caco-2 cells [8], the “induction of apoptosis” value is “induced early and late apoptosis in a concentration-dependent manner”. The “cell cycle arrest” value with Caco-2 cells [9] is listed as “induced S-phase arrest only to a lesser extent”. Moreover, the “expression of P-AKT” value in [10] is listed as “inhibited the expression of P-AKT”. Besides, in data set [10], the “expression of P-JNK and IκBα” value was “induced the expression of P-JNK and IκBα in a concentration-dependent manner”. In addition, the “time after dosing until cleared from / still detected in plasma” value in data set [11] (oral 50 mg kg^−1) is on record as 2 h. Besides, the “AUC(0-t)” value in [11] (oral (gavage) 50 mg kg^−1) is 35,697.63 μg/L*min. In addition, in data set [11] (oral (gavage) 50 mg kg^−1), the CLz came out at 900 mL/min/kg. Also, the Tmax in data set [11] (oral (gavage) 50 mg kg^−1) was determined as 30.00 min. In data set [11] (oral (gavage) 50 mg kg^−1), the Vz was 97.58 L/kg. The compound further had a Cmax in data set [11] (male, Sprague Dawley, rat, plasma, oral (gavage) 50 mg kg^−1) of 380 ng/mL. Besides, the MRT last in [11] (male, Sprague Dawley, rat, plasma, oral (gavage) 50 mg kg^−1, read-out: MRT(0-t) (converted)) was 54 min. In data set [11] (male, Sprague Dawley, rat, plasma, oral (gavage) 50 mg kg^−1, read-out: t1/2z), the half-life worked out at 74.8 min. For the same compound, the “inhibitory effect on tumor growth” value in the data set with Caco-2 xenograft tumors was “CA8 > tegafur > CU”.
